Measured values reported in patent publication US8785655B2, “Ionic liquid solvents” (Dublin City University, priority 2009, dated 2014).

Key:
[1] = test system: Candida parapsilosis ATCC 22019; assay: In vitro antifungal activity, MIC by microdilution (NCCLS M27-A); settings: CP
[2] = test system: Aspergillus fumigatus 231; assay: as above; settings: AF
Experimental: (§1) In vitro antifungal activities of the compounds were evaluated on the collection of fungal strains deposited at the Department of Biological and Medical Sciences, Faculty of Pharmacy, Charles University, Czech Republic. All the isolates were maintained on Sabouraud dextrose agar prior to being tested.
(§2) Minimum inhibitory concentrations (MICs) were determined by the microdilution format of the NCCLS M27-A guidelines. […] RPMI 1640 (Sevapharma, Prague) medium supplemented with L-glutamine and buffered with 0.165 M morpholinepropanesulfonic acid to pH 7.0 was used as the test medium. The wells of the microdilution tray contained 100 μl of the RPMI 1640 medium with 2-fold serial dilutions of the compounds (1000 to 0.24 μmol/l for the new compounds) and 100 μl of inoculum suspension. Fungal inoculum in RPMI 1640 was prepared to give a final concentration of 5×103±0.2 cfu·ml-1. The trays were incubated at 35° C. and MICs were read visually for filamentous fungi and photometrically for yeasts as an optical density (OD) at 540 nm after 24 h and 48 h. The MICs were defined as 80% inhibition of the growth of control. MICs were determined twice and in duplicate. The deviations from the usually obtained were no higher than the nearest concentration value up and down the dilution scale.

[3] = test system: Klebsiella pneumoniae D 11750/08; assay: Screen against bacteria, MIC/IC80; format: cell-based; settings: KP
[4] = test system: Candida lusitaniae 2446/l; assay: In vitro antifungal activity, MIC by microdilution (NCCLS M27-A); settings: CL
[5] = test system: Candida albicans ATCC 44859; assay: as above
Experimental: as §1, §2

[6] = test system: Escherichia coli CCM4517; assay: Screen against bacteria, MIC/IC80; format: cell-based; settings: EC
[7] = test system: Pseudomonas aeruginosa CCM 1961; assay: Screen against bacteria, MIC/IC80; format: cell-based; settings: PA
[8] = test system: Staphylococcus epidermidis H 6966/08; assay: Screen against bacteria, MIC/IC80; format: cell-based; settings: SE
[9] = test system: Absidia corymbifera 272; assay: In vitro antifungal activity, MIC by microdilution (NCCLS M27-A); settings: AC
[10] = test system: Candida krusei ATCC 6258; assay: as above
Experimental: as §1, §2

[11] = test system: Enterococcus sp. J 14365/08; assay: Screen against bacteria, MIC/IC80; format: cell-based; settings: EF
[12] = test system: Candida glabrata 20/l; assay: In vitro antifungal activity, MIC by microdilution (NCCLS M27-A); settings: CG
[13] = test system: Klebsiella pneumoniae J 14368/08 ESBL-positive; assay: Screen against bacteria, MIC/IC80; format: cell-based; settings: KP-E
[14] = test system: Staphylococcus aureus H 5996/08 Methiciline-resistant; assay: Screen against bacteria, MIC/IC80; format: cell-based; settings: MRSA
[15] = test system: Trichophyton mentagrophytes 445; assay: In vitro antifungal activity, MIC by microdilution (NCCLS M27-A); settings: TM
Experimental: as §1, §2

[16] = test system: Candida albicans ATCC 90028; assay: as above
[17] = test system: Candida krusei E28; assay: as above
Experimental: All the isolates were maintained on Sabouraud dextrose agar prior to being tested.
as §2

[18] = test system: Candida tropicalis 156; assay: as above; settings: CT
Experimental: as §1, §2

[19] = test system: Staphylococcus aureus CCM 4516/08; assay: Screen against bacteria, MIC/IC80; format: cell-based; settings: SA

Row | Compound | MIC/IC80 ([1]; 24 h) | MIC/IC80 ([1]; 48 h) | MIC/IC80 ([2]; 24 h) | MIC/IC80 ([2]; 48 h) | MIC/IC80 ([3]; 24 h) | MIC/IC80 ([3]; 48 h) | MIC/IC80 ([4]; 24 h) | MIC/IC80 ([4]; 48 h) | MIC/IC80 ([5]; CA1, 24 h) | MIC/IC80 ([5]; CA1, 48 h) | MIC/IC80 ([6]; 24 h) | MIC/IC80 ([6]; 48 h) | MIC/IC80 ([7]; 24 h) | MIC/IC80 ([7]; 48 h) | MIC/IC80 ([8]; 24 h) | MIC/IC80 ([8]; 48 h) | MIC/IC80 ([9]; 24 h) | MIC/IC80 ([9]; 48 h) | MIC/IC80 ([10]; CK1, 24 h) | MIC/IC80 ([10]; CK1, 48 h) | further results
1 | CCOCCOC(=O)[C@@H](OC(=O)Cn1cc[n+](C)c1)c1ccccc1.[Br-] [KG826, S-3-methyl-1-[1-(ethoxyethoxycarbonyl)-1-phenylmethoxycarbonylmethyl]imidazolium bromide] | >1000 µM | >1000 µM | >1000 µM | >1000 µM | >1000 µM | >1000 µM | >1000 µM | >1000 µM | >1000 µM | >1000 µM | >1000 µM | >1000 µM | >1000 µM | >1000 µM | >1000 µM | >1000 µM | >1000 µM | >1000 µM | >1000 µM | >1000 µM | MIC/IC80 ([11]; 24 h): >1000 µM; MIC/IC80 ([11]; 48 h): >1000 µM; MIC/IC80 ([12]; 24 h): >1000 µM; MIC/IC80 ([12]; 48 h): >1000 µM; MIC/IC80 ([13]; 24 h): >1000 µM; MIC/IC80 ([13]; 48 h): >1000 µM; MIC/IC80 ([14]; 24 h): >1000 µM; MIC/IC80 ([14]; 48 h): >1000 µM; MIC/IC80 ([15]; 72 h): >1000 µM; MIC/IC80 ([15]; 120 h): >1000 µM; MIC/IC80 ([16]; CA2, 24 h): >1000 µM; MIC/IC80 ([16]; CA2, 48 h): >1000 µM; MIC/IC80 ([17]; CK2, 24 h): >1000 µM; MIC/IC80 ([17]; CK2, 48 h): >1000 µM; MIC/IC80 ([18]; 24 h): >1000 µM; MIC/IC80 ([18]; 48 h): >1000 µM; MIC/IC80 ([19]; 24 h): >1000 µM; MIC/IC80 ([19]; 48 h): >1000 µM
2 | R-3-methyl-1-[1-(methoxycarbonyl)-1-phenylmethoxycarbonylmethyl]imidazolium octyl sulphate [KG87] | >1000 µM | >1000 µM | >1000 µM | >1000 µM | >1000 µM | >1000 µM | >1000 µM | >1000 µM | >1000 µM | >1000 µM | >1000 µM | >1000 µM | >1000 µM | >1000 µM | >1000 µM | >1000 µM | >1000 µM | >1000 µM | 1000 µM | >1000 µM | MIC/IC80 ([11]; 24 h): >1000 µM; MIC/IC80 ([11]; 48 h): >1000 µM; MIC/IC80 ([12]; 24 h): >1000 µM; MIC/IC80 ([12]; 48 h): >1000 µM; MIC/IC80 ([13]; 24 h): >1000 µM; MIC/IC80 ([13]; 48 h): >1000 µM; MIC/IC80 ([14]; 24 h): >1000 µM; MIC/IC80 ([14]; 48 h): >1000 µM; MIC/IC80 ([15]; 72 h): 1000 µM; MIC/IC80 ([15]; 120 h): >1000 µM; MIC/IC80 ([16]; CA2, 24 h): >1000 µM; MIC/IC80 ([16]; CA2, 48 h): >1000 µM; MIC/IC80 ([17]; CK2, 24 h): 1000 µM; MIC/IC80 ([17]; CK2, 48 h): >1000 µM; MIC/IC80 ([18]; 24 h): >1000 µM; MIC/IC80 ([18]; 48 h): >1000 µM; MIC/IC80 ([19]; 24 h): >1000 µM; MIC/IC80 ([19]; 48 h): >1000 µM
